Experiments:
Rattus norvegicus [1] = assay: Anti-inflammatory activity in rat model of acute inflammation assessed as inhibition of carrageenan-induced paw oedema dosed at 10 mg/kg, po dosed 1 hr before carrageenan injection and measured 6 hrs after carrageenan injection; type: functional
Rattus norvegicus [2] = assay: Hepato-toxicity in rat Freund's adjuvant induced arthritis model of chronic inflammation assessed as assessed as SGPT level at 10 mg/kg, po dosed after 14 days from day of adjuvant injection until day 21 and measured on day 21 (reference value: 34.23 +/- 2.5 U/mL); type: organism-based; conditions: in vivo, 336 h
Rattus norvegicus [3] = assay: Anti-inflammatory activity in rat Freund's adjuvant induced arthritis model of chronic inflammation assessed as inhibition of right hind paw swelling at 10 mg/kg, po dosed after 14 days from day of adjuvant injection until day 21 and measured on day 6; type: functional
Rattus norvegicus [4] = assay: Anti-inflammatory activity in rat Freund's adjuvant induced arthritis model of chronic inflammation assessed as inhibition of right hind paw swelling at 10 mg/kg, po dosed after 14 days from day of adjuvant injection until day 21 and measured on day 18; type: functional
Rattus norvegicus [5] = assay: Anti-inflammatory activity in rat Freund's adjuvant induced arthritis model of chronic inflammation assessed as inhibition of right hind paw swelling at 10 mg/kg, po dosed after 14 days from day of adjuvant injection until day 21 and measured on day 3; type: functional
Rattus norvegicus [6] = assay: Anti-inflammatory activity in rat model of acute inflammation assessed as inhibition of carrageenan-induced paw oedema dosed at 10 mg/kg, po dosed 1 hr before carrageenan injection and measured 5 hrs after carrageenan injection; type: functional
Rattus norvegicus [7] = assay: Hepato-toxicity in rat Freund's adjuvant induced arthritis model of chronic inflammation assessed as assessed as SGOT level at 10 mg/kg, po dosed after 14 days from day of adjuvant injection until day 21 and measured on day 21 (reference value: 92.48 +/- 7.8 U/mL); type: organism-based; conditions: in vivo, 336 h
Rattus norvegicus [8] = assay: Anti-inflammatory activity in rat model of acute inflammation assessed as inhibition of carrageenan-induced paw oedema dosed at 10 mg/kg, po dosed 1 hr before carrageenan injection and measured 4 hrs after carrageenan injection; type: functional
Rattus norvegicus [9] = assay: Renal toxicity in rat Freund's adjuvant induced arthritis model of chronic inflammation assessed as assessed as histological changes at 10 mg/kg, po dosed after 14 days from day of adjuvant injection until day 21 and measured on day 21 by hematoxylin and eosin staining based microscopy; type: organism-based; conditions: in vivo, 336 h
Rattus norvegicus [10] = assay: Renal toxicity in rat Freund's adjuvant induced arthritis model of chronic inflammation assessed as assessed as total albumin level at 10 mg/kg, po dosed after 14 days from day of adjuvant injection until day 21 and measured on day 21 (reference value: 1.77 +/- 0.12 g/dL); type: organism-based; conditions: in vivo, 336 h
Rattus norvegicus [11] = assay: Anti-inflammatory activity in rat model of acute inflammation assessed as inhibition of carrageenan-induced paw oedema dosed at 10 mg/kg, po dosed 1 hr before carrageenan injection and measured 1 hr after carrageenan injection; type: functional
Rattus norvegicus [12] = assay: Anti-inflammatory activity in rat assessed as inhibition of arachidonic acid-induced paw edema at 10 mg/kg, po dosed 30 mins before arachidonic acid injection and measured 1 hr after arachidonic acid injection; type: functional
Rattus norvegicus [13] = assay: Anti-inflammatory activity in rat model of acute inflammation assessed as inhibition of carrageenan-induced paw oedema dosed at 10 mg/kg, po dosed 1 hr before carrageenan injection and measured 3 hrs after carrageenan injection; type: functional
Mus musculus [14] = assay: Analgesic activity in Swiss albino mouse assessed as reduction in number of writhing episodes at 10 mg/kg, po measured 30 mins following acetic acid injection; type: functional; conditions: 0.5 h
Rattus norvegicus [15] = assay: Anti-inflammatory activity in rat Freund's adjuvant induced arthritis model of chronic inflammation assessed as inhibition of right hind paw swelling at 10 mg/kg, po dosed after 14 days from day of adjuvant injection until day 21 and measured on day 21; type: functional
Rattus norvegicus [16] = assay: Gastro-intestinal toxicity in rat Freund's adjuvant induced arthritis model of chronic inflammation assessed as ulcer index at 10 mg/kg, po dosed after 14 days from day of adjuvant injection until day 21 and measured on day 21; type: organism-based; conditions: in vivo, 336 h
Rattus norvegicus [17] = assay: Anti-inflammatory activity in rat Freund's adjuvant induced arthritis model of chronic inflammation assessed as inhibition of right hind paw swelling at 10 mg/kg, po dosed after 14 days from day of adjuvant injection until day 21 and measured on day 12; type: functional
Rattus norvegicus [18] = assay: Hepato-toxicity in rat Freund's adjuvant induced arthritis model of chronic inflammation assessed as assessed as alkaline phosphatase level at 10 mg/kg, po dosed after 14 days from day of adjuvant injection until day 21 and measured on day 21 (reference value: 17.82 +/- 1.2 U); type: organism-based; conditions: in vivo, 336 h
Rattus norvegicus [19] = assay: Anti-inflammatory activity in rat Freund's adjuvant induced arthritis model of chronic inflammation assessed as inhibition of right hind paw swelling at 10 mg/kg, po dosed after 14 days from day of adjuvant injection until day 21 and measured on day 15; type: functional
Rattus norvegicus [20] = assay: Renal toxicity in rat Freund's adjuvant induced arthritis model of chronic inflammation assessed as assessed as blood urea nitrogen level at 10 mg/kg, po dosed after 14 days from day of adjuvant injection until day 21 and measured on day 21 (reference value: 23.48 +/- 1.8 mg/dL); type: organism-based; conditions: in vivo, 336 h
[21] = In-vitro antiinflammatory activity assessed as inhibition of denaturation of bovine serum albumin at 10 mg; type: functional
Rattus norvegicus [22] = assay: Anti-inflammatory activity in rat model of acute inflammation assessed as inhibition of carrageenan-induced paw oedema dosed at 10 mg/kg, po dosed 1 hr before carrageenan injection and measured 2 hrs after carrageenan injection; type: functional
Rattus norvegicus [23] = assay: Hepato-toxicity in rat Freund's adjuvant induced arthritis model of chronic inflammation assessed as assessed as histological changes at 10 mg/kg, po dosed after 14 days from day of adjuvant injection until day 21 and measured on day 21 by hematoxylin and eosin staining based microscopy; type: organism-based; conditions: in vivo, 336 h
Rattus norvegicus [24] = assay: Renal toxicity in rat Freund's adjuvant induced arthritis model of chronic inflammation assessed as assessed as creatinine level at 10 mg/kg, po dosed after 14 days from day of adjuvant injection until day 21 and measured on day 21 (reference value: 0.62 +/- 0.049 mg/dL); type: organism-based; conditions: in vivo, 336 h
Rattus norvegicus [25] = assay: Anti-inflammatory activity in rat Freund's adjuvant induced arthritis model of chronic inflammation assessed as inhibition of right hind paw swelling at 10 mg/kg, po dosed after 14 days from day of adjuvant injection until day 21 and measured on day 9; type: functional
Rattus norvegicus [26] = assay: Gastro-intestinal toxicity in rat Freund's adjuvant induced arthritis model of chronic inflammation assessed as assessed as histological changes at 10 mg/kg, po dosed after 14 days from day of adjuvant injection until day 21 and measured on day 21 by hematoxylin and eosin staining based microscopy; type: organism-based; conditions: in vivo, 336 h
Mus musculus [27] = assay: Analgesic activity in Swiss albino mouse assessed as reduction in formalin-induced paw licking by measuring time spent on licking during phase-2 at 10 mg/kg, po dosed 1 hr before formalin challenge and measured 30 mins after formalin injection; type: functional
Mus musculus [28] = assay: Analgesic activity in Swiss albino mouse assessed as reduction in formalin-induced paw licking by measuring time spent on licking during phase-1 at 10 mg/kg, po dosed 1 hr before formalin challenge and measured 30 mins after formalin injection; type: functional
Rattus norvegicus [29] = assay: Renal toxicity in rat Freund's adjuvant induced arthritis model of chronic inflammation assessed as assessed as total protein level at 10 mg/kg, po dosed after 14 days from day of adjuvant injection until day 21 and measured on day 21 (reference value: 1.78 +/- 0.11 g/dL); type: organism-based; conditions: in vivo, 336 h

With `COc1ccc2c(c1)c(CC(=O)O)c(C)n2C(=O)c1ccc(Cl)cc1` [INDOMETHACIN] the inhibition in vivo at 10 mg/kg (Rattus norvegicus [1]) was 57.8%, the Activity (Rattus norvegicus [2]) was 52.83 U/ml and the inhibition in vivo at 10 mg/kg (Rattus norvegicus [3]) was 39.7%. It also gave an inhibition in vivo at 10 mg/kg (Rattus norvegicus [4]) of 54.2%, an inhibition in vivo at 10 mg/kg (Rattus norvegicus [5]) of 33.1% and an inhibition in vivo at 10 mg/kg (Rattus norvegicus [6]) of 62.6%. The Activity (Rattus norvegicus [7]) was 121.56 U/ml, the inhibition in vivo at 10 mg/kg (Rattus norvegicus [8]) was 60% and the Activity (Rattus norvegicus [9]) was “Toxic”. For the same molecule, the Activity (Rattus norvegicus [10]) was 2.08 g/dL, the inhibition in vivo at 10 mg/kg (Rattus norvegicus [11]) was 57.6% and the inhibition in vivo at 10 mg/kg (Rattus norvegicus [12]) was 21.1%. For the same molecule, the inhibition in vivo at 10 mg/kg (Rattus norvegicus [13]) was 60.5%, the inhibition in vivo at 10 mg/kg (Mus musculus [14]) was 77.3% and the inhibition in vivo at 10 mg/kg (Rattus norvegicus [15]) was 56.8%. It also gave a UI (Rattus norvegicus [16]) of 52, an inhibition in vivo at 10 mg/kg (Rattus norvegicus [17]) of 45.9% and an Activity (Rattus norvegicus [18]) of 26.24 U. It also gave an inhibition in vivo at 10 mg/kg (Rattus norvegicus [19]) of 51.3%, an Activity (Rattus norvegicus [20]) of 62.74 mg/dL and an inhibition [21] of 84.9%. For the same molecule, the inhibition in vivo at 10 mg/kg (Rattus norvegicus [22]) was 59.5%, the Activity (Rattus norvegicus [23]) was “Toxic” and the Activity (Rattus norvegicus [24]) was 1.84 mg/dL. For the same molecule, the inhibition in vivo at 10 mg/kg (Rattus norvegicus [25]) was 42.4%, the Activity (Rattus norvegicus [26]) was “Toxic” and the inhibition in vivo at 10 mg/kg (Mus musculus [27]) was 82.2%. It also gave an inhibition in vivo at 10 mg/kg (Mus musculus [28]) of 15.6% and an Activity (Rattus norvegicus [29]) of 2.24 g/dL.

From ChEMBL document CHEMBL3608207, “Synthesis, characterization, evaluation and molecular dynamics studies of 5, 6-diphenyl-1,2,4-triazin-3(2H)-one derivatives bearing 5-substituted 1,3,4-oxadiazole as potential anti-inflammatory and analgesic agents” (Eur J Med Chem, 2015)
